Results taken from patent publication US6156700A, “3-(1,2-Benzisothiazol- and isoxazol-5-yl)-2,4(1H,3H)-pyrimidinedione or thione and 3-(1,2-benzisothiazol- and isoxazol-5-yl)-4(3H)-pyrimidinone or thione herbicidal agents” (American Cyanmid Company, priority 1998, dated 2000).

Assays:
Settings in all cases: 0.0630 kg/ha
[1] = system: Ragweed, Common, Ambrosia artemisifolia; assay: Postemergence herbicidal evaluation, AMBEL; format: in vivo, L.
Experimental: (§1) In the tests, seedling plants are grown in jiffy flats for about two weeks. The test compounds are dispersed in 50/50 acetone/water mixtures containing 0.5% TWEEN®20, a polyoxyethylene sorbitan monolaurate surfactant of Atlas Chemical Industries, in sufficient quantities to provide the equivalent of about 0.0157 kg to 0.500 kg per hectare of active compound when applied to the plants through a spray nozzle operating at 40 psi for a predetermined time. After spraying, the plants are placed on greenhouse benches and are cared for in accordance with conventional greenhouse procedures. From four to five weeks after treatment, the seedling plants are examined and rated according to the rating system set forth below. Where more than one test is involved for a given compound, the data are averaged.
(§2) Results of herbicide evaluation are expressed on a rating scale (0-9). The scale is based upon a visual observation of plant stand, vigor, malformation, size, chlorosis and overall plant appearance as compared with a control.

[2] = system: Wheat, Winter, cv Riband, Triticum aestivum; assay: Postemergence herbicidal evaluation, TRZAWR; format: in vivo
Experimental: as §1, §2

[3] = system: Lambsquarters, Common, Chenopodium album; assay: Postemergence herbicidal evaluation, CHEAL; format: in vivo, L.
Experimental: as §1, §2

[4] = system: Sicklepod, Cassia obtusifolia; assay: Postemergence herbicidal evaluation, CASOB; format: in vivo, L.
Experimental: as §1, §2

Corn, Field, Zea mays = assay: Postemergence herbicidal evaluation, ZEAMX; format: in vivo, L.
Experimental: as §1, §2

[5] = system: Rice, Tebonnet, Oryza sativa; assay: Postemergence herbicidal evaluation, ORYSAT; format: in vivo, (L.) Tebonnet
Experimental: as §1, §2

[6] = system: Morningglory, Ivyleaf, Ipomoea hederacea; assay: Postemergence herbicidal evaluation, IPOHE; format: in vivo, (L.) Jacq.
Experimental: as §1, §2

[7] = system: Barnyardgrass, Echinochloa crus-galli; assay: Postemergence herbicidal evaluation, ECHCG; format: in vivo, (L.) Beau
Experimental: as §1, §2

[8] = system: Velvetleaf, Abutilon theophrasti; assay: Postemergence herbicidal evaluation, ABUTH; format: in vivo, Medic.
Experimental: as §1, §2

[9] = system: Foxtail, Green, Setaria viridis; assay: Postemergence herbicidal evaluation, SETVI; format: in vivo, (L.) Beau
Experimental: as §1, §2

[10] = system: Soybean, Williams, Glycine max; assay: Postemergence herbicidal evaluation, GLXMAW; format: in vivo, (L.) Merr. cv Williams
Experimental: as §1, §2

Galium, Galium aparine = assay: Postemergence herbicidal evaluation, GALAP; format: in vivo
Experimental: as §1, §2

Structure (SMILES): Cc1ccc(OC(C)C(=O)OCc2ccco2)c(-c2nsc3ccc(-n4c(=O)cc(C(F)(F)F)n(C)c4=O)cc23)c1 (stereo not drawn) [Compound 79, Furfuryl 2-{{2-{5-[3,6-dihydro-3-methyl-2,6-dioxo-4-(trifluoromethyl)-1(2H)-pyrimidinyl]-1,2-benzisothiazol-3-yl}-p-tolyl}oxy}propionate]
- herbicide rating (0-9) [1]: 9.0
- herbicide rating (0-9) [2]: 8.5
- herbicide rating (0-9) [3]: 9.0
- herbicide rating (0-9) [4]: 7.0
- herbicide rating (0-9) (Corn, Field, Zea mays): 7.5
- herbicide rating (0-9) [5]: 7.5
- herbicide rating (0-9) [6]: 9.0
- herbicide rating (0-9) [7]: 9.0
- herbicide rating (0-9) [8]: 9.0
- herbicide rating (0-9) [9]: 9.0
- herbicide rating (0-9) [10]: 7.5
- herbicide rating (0-9) (Galium, Galium aparine): 9.0

Structure (SMILES): COCc1nsc2ccc(-n3c(=O)cc(C(F)(F)F)n(C)c3=O)cc12 [Compound 31, 3-[3-(Methoxymethyl)-1,2-benzisothiazol-5-yl]-1-methyl-6-(trifluoromethyl)-2,4 (1H,3H)-pyrimidinedione]
- herbicide rating (0-9) [1]: 9.0
- herbicide rating (0-9) [2]: 3.0
- herbicide rating (0-9) [3]: 9.0
- herbicide rating (0-9) [4]: 9.0
- herbicide rating (0-9) (Corn, Field, Zea mays): 6.0
- herbicide rating (0-9) [5]: 3.0
- herbicide rating (0-9) [6]: 9.0
- herbicide rating (0-9) [7]: 4.0
- herbicide rating (0-9) [8]: 9.0
- herbicide rating (0-9) [9]: 9.0
- herbicide rating (0-9) [10]: 9.0
- herbicide rating (0-9) (Galium, Galium aparine): 8.0

Structure (SMILES): Cc1ccc(OCC(=O)OCC#Cc2ccccc2)c(-c2nsc3ccc(-n4c(=O)cc(C(F)(F)F)n(C)c4=O)cc23)c1 [Compound 73]
- herbicide rating (0-9) [1]: 9.0
- herbicide rating (0-9) [2]: 4.5
- herbicide rating (0-9) [3]: 9.0
- herbicide rating (0-9) [4]: 9.0
- herbicide rating (0-9) (Corn, Field, Zea mays): 6.0
- herbicide rating (0-9) [5]: 5.5
- herbicide rating (0-9) [6]: 9.0
- herbicide rating (0-9) [7]: 9.0
- herbicide rating (0-9) [8]: 9.0
- herbicide rating (0-9) [9]: 9.0
- herbicide rating (0-9) [10]: 9.0
- herbicide rating (0-9) (Galium, Galium aparine): 9.0

Structure (SMILES): C=CCOC(=O)C(C)Oc1ccc(C)cc1-c1nsc2ccc(-n3c(=O)cc(C(F)(F)F)n(C)c3=O)cc12 (stereo not drawn) [Compound 78, Allyl 2-{{2-{5-[3,6-dihydro-3-methyl-2,6-dioxo-4-(trifluoromethyl)-1(2H)-pyrimidinyl]-1,2-benzisothiazol-3-yl}-p-tolyl}oxy}propionate]
- herbicide rating (0-9) [1]: 9.0
- herbicide rating (0-9) [2]: 9.0
- herbicide rating (0-9) [3]: 9.0
- herbicide rating (0-9) [4]: 3.0
- herbicide rating (0-9) (Corn, Field, Zea mays): 7.5
- herbicide rating (0-9) [5]: 7.0
- herbicide rating (0-9) [6]: 9.0
- herbicide rating (0-9) [7]: 9.0
- herbicide rating (0-9) [8]: 9.0
- herbicide rating (0-9) [9]: 9.0
- herbicide rating (0-9) [10]: 6.5
- herbicide rating (0-9) (Galium, Galium aparine): 7.0

Structure (SMILES): Cc1ccc(OC(C)C(=O)OC(C)C)c(-c2nsc3ccc(-n4c(=O)cc(C(F)(F)F)n(C)c4=O)cc23)c1 (stereo not drawn) [Compound 82, Isopropyl 2-{{2-{5-[3,6-dihydro-3-methyl-2,6-dioxo-4-(trifluoromethyl)-1(2H)-pyrimidinyl)-1,2-benzisothiazol-3-yl}-p-tolyl}oxy}propionate]
- herbicide rating (0-9) [1]: 6.0
- herbicide rating (0-9) [2]: 6.0
- herbicide rating (0-9) [3]: 9.0
- herbicide rating (0-9) [4]: 1.0
- herbicide rating (0-9) (Corn, Field, Zea mays): 5.5
- herbicide rating (0-9) [5]: 5.5
- herbicide rating (0-9) [6]: 9.0
- herbicide rating (0-9) [7]: 7.0
- herbicide rating (0-9) [8]: 9.0
- herbicide rating (0-9) [9]: 9.0
- herbicide rating (0-9) [10]: 5.5
- herbicide rating (0-9) (Galium, Galium aparine): 4.0

Structure (SMILES): C=CCOc1ccc(C)cc1-c1nsc2ccc(-n3c(=O)cc(C(F)(F)F)n(C)c3=O)cc12 [Compound 65, 3-{3-[6-(Allyloxy)-m-tolyl)-1,2-benzisothiazol-5-yl}-1-methyl-6-(trifluoromethyl)-2,4(1H,3H)-pyrimidinedione]
- herbicide rating (0-9) [1]: 9.0
- herbicide rating (0-9) [2]: 3.5
- herbicide rating (0-9) [3]: 9.0
- herbicide rating (0-9) [4]: 9.0
- herbicide rating (0-9) (Corn, Field, Zea mays): 5.5
- herbicide rating (0-9) [5]: 1.5
- herbicide rating (0-9) [6]: 9.0
- herbicide rating (0-9) [7]: 1.0
- herbicide rating (0-9) [8]: 9.0
- herbicide rating (0-9) [9]: 9.0
- herbicide rating (0-9) [10]: 5.5
- herbicide rating (0-9) (Galium, Galium aparine): 4.0

Structure (SMILES): CCC(CC)OC(=O)COc1ccc(C)cc1-c1nsc2ccc(-n3c(=O)cc(C(F)(F)F)n(C)c3=O)cc12 [Compound 83, 1-Ethylpropyl {{2-{5-[3,6-dihydro-3-methyl-2,6-dioxo-4-(trifluoromethyl)-1(2H)-pyrimidinyl)-1,2-benzisothiazol-3-yl}-p-tolyl}oxy}acetate]
- herbicide rating (0-9) [1]: 9.0
- herbicide rating (0-9) [2]: 6.5
- herbicide rating (0-9) [3]: 9.0
- herbicide rating (0-9) [4]: 3.0
- herbicide rating (0-9) (Corn, Field, Zea mays): 6.0
- herbicide rating (0-9) [5]: 7.5
- herbicide rating (0-9) [6]: 9.0
- herbicide rating (0-9) [7]: 9.0
- herbicide rating (0-9) [8]: 9.0
- herbicide rating (0-9) [9]: 9.0
- herbicide rating (0-9) [10]: 8.0
- herbicide rating (0-9) (Galium, Galium aparine): 7.0

Structure (SMILES): COC(=O)C(C)Oc1ccc(C)cc1-c1nsc2ccc(-n3c(=S)cc(C(F)(F)F)n(C)c3=O)cc12 (stereo not drawn) [Compound 33, Methyl 2-{{2-{5-[3,6-dihydro-3-methyl-2-oxo-6-thioxo-4-(trifluoromethyl)-1(2H)-pyrimidinyl]-1,2-benzisothiazol-3-yl}-p-tolyl}oxy}propionate]
- herbicide rating (0-9) [1]: 9.0
- herbicide rating (0-9) [2]: 8.5
- herbicide rating (0-9) [3]: 9.0
- herbicide rating (0-9) [4]: 8.0
- herbicide rating (0-9) (Corn, Field, Zea mays): 8.5
- herbicide rating (0-9) [5]: 7.5
- herbicide rating (0-9) [6]: 9.0
- herbicide rating (0-9) [7]: 9.0
- herbicide rating (0-9) [8]: 9.0
- herbicide rating (0-9) [9]: 9.0
- herbicide rating (0-9) [10]: 6.0
- herbicide rating (0-9) (Galium, Galium aparine): 9.0

Structure (SMILES): Cc1ccc(OCC(=O)OC(C)(C)C)c(-c2nsc3ccc(-n4c(=O)cc(C(F)(F)F)n(C)c4=O)cc23)c1 [Compound 68, tert-Butyl {{2-{5-[3,6-dihydro-3-methyl-2,6-dioxo-4-(trifluoromethyl)-1(2H)-pyrimidinyl]-1,2-benzisothiazol-3-yl}-p-tolyl}oxy}acetate]
- herbicide rating (0-9) [1]: 5.0
- herbicide rating (0-9) [2]: 3.5
- herbicide rating (0-9) [3]: 9.0
- herbicide rating (0-9) [4]: 9.0
- herbicide rating (0-9) (Corn, Field, Zea mays): 5.0
- herbicide rating (0-9) [5]: 2.0
- herbicide rating (0-9) [6]: 9.0
- herbicide rating (0-9) [7]: 5.0
- herbicide rating (0-9) [8]: 6.0
- herbicide rating (0-9) [9]: 9.0
- herbicide rating (0-9) [10]: 5.5
- herbicide rating (0-9) (Galium, Galium aparine): 2.0

Structure (SMILES): C=CCOC(=O)COc1ccc(C)cc1-c1nsc2ccc(-n3c(=O)cc(C(F)(F)F)n(C)c3=O)cc12 [Compound 69, Allyl {{2-{5-[3,6-dihydro-3-methyl-2,6-dioxo-4-(trifluoromethyl)-1(2H)-pyrimidinyl]-1,2-benzisothiazol-3-yl}-p-tolyl}oxy}acetate]
- herbicide rating (0-9) [1]: 9.0
- herbicide rating (0-9) [2]: 8.0
- herbicide rating (0-9) [3]: 9.0
- herbicide rating (0-9) [4]: 9.0
- herbicide rating (0-9) (Corn, Field, Zea mays): 8.5
- herbicide rating (0-9) [5]: 8.0
- herbicide rating (0-9) [6]: 9.0
- herbicide rating (0-9) [7]: 9.0
- herbicide rating (0-9) [8]: 9.0
- herbicide rating (0-9) [9]: 9.0
- herbicide rating (0-9) [10]: 9.0
- herbicide rating (0-9) (Galium, Galium aparine): 9.0

Structure (SMILES): Cc1ccc(OCC(=O)OC(C)C(C)(C)C)c(-c2nsc3ccc(-n4c(=O)cc(C(F)(F)F)n(C)c4=O)cc23)c1 (stereo not drawn) [Compound 85, 1,2,2-Trimethylpropyl {{2-{5-[3,6-dihydro-3-methyl-2,6-dioxo-4-(trifluoromethyl)-1(2H)-pyrimidinyl]-1,2-benzisothiazol-3-yl}-p-tolyl}oxy}acetate]
- herbicide rating (0-9) [1]: 2.0
- herbicide rating (0-9) [2]: 5.5
- herbicide rating (0-9) [3]: 5.0
- herbicide rating (0-9) [4]: 2.0
- herbicide rating (0-9) (Corn, Field, Zea mays): 6.5
- herbicide rating (0-9) [5]: 5.0
- herbicide rating (0-9) [6]: 9.0
- herbicide rating (0-9) [7]: 7.0
- herbicide rating (0-9) [8]: 5.0
- herbicide rating (0-9) [9]: 8.0
- herbicide rating (0-9) [10]: 7.0
- herbicide rating (0-9) (Galium, Galium aparine): 5.0

Structure (SMILES): Cc1ccc(OC(C)C(=O)OCCCl)c(-c2nsc3ccc(-n4c(=O)cc(C(F)(F)F)n(C)c4=O)cc23)c1 (stereo not drawn) [Compound 81, 2-Chloroethyl 2-{{2-{5-[3,6-dihydro-3-methyl-2,6-dioxo-4-(trifluoromethyl)-1(2H)-pyrimidinyl]-1,2-benzisothiazol-3-yl}-p-tolyl}oxy}propionate]
- herbicide rating (0-9) [1]: 9.0
- herbicide rating (0-9) [2]: 8.5
- herbicide rating (0-9) [3]: 9.0
- herbicide rating (0-9) [4]: 3.0
- herbicide rating (0-9) (Corn, Field, Zea mays): 8.0
- herbicide rating (0-9) [5]: 8.0
- herbicide rating (0-9) [6]: 9.0
- herbicide rating (0-9) [7]: 9.0
- herbicide rating (0-9) [8]: 9.0
- herbicide rating (0-9) [9]: 9.0
- herbicide rating (0-9) [10]: 7.0
- herbicide rating (0-9) (Galium, Galium aparine): 9.0
